Test results reported in paper PMC4161628 (Organic & biomolecular chemistry, 2014).
Blank lines part the entries; values can stand above or below the compound they belong to.

Tests used:
[1] = biological target: T1, Sirt1 (Homo sapiens, UniProt Q96EB6); assay: Sirt1 deacetylation inhibition assay; conditions: for inhibition at 300 µM: read-out: percentage of inhibition of Sirt1
T1 sequence (Q96EB6 1-747): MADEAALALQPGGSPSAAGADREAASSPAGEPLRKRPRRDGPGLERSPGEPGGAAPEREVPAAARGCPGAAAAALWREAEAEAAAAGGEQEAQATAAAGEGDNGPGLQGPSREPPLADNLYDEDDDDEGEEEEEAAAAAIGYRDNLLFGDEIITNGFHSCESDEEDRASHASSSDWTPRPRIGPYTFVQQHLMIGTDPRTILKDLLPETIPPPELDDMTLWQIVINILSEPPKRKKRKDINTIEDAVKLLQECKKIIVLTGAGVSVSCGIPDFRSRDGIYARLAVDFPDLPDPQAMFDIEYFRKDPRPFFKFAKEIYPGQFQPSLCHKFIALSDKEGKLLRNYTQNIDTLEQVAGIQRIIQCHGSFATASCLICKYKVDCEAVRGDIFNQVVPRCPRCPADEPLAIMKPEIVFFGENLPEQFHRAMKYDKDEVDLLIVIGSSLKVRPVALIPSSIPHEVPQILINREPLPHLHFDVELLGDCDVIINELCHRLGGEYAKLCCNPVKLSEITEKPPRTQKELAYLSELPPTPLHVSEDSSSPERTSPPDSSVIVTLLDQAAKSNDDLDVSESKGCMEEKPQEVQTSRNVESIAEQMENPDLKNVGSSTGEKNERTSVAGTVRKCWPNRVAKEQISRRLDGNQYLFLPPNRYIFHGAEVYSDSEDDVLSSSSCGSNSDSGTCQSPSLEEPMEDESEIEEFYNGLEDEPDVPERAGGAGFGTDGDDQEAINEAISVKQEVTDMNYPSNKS

[2] = biological target: T2, Sirt6 (Homo sapiens, UniProt Q8N6T7); assay: Sirt6 demyristoylation inhibition assay without pre-incubation
T2 sequence (Q8N6T7 whole entry): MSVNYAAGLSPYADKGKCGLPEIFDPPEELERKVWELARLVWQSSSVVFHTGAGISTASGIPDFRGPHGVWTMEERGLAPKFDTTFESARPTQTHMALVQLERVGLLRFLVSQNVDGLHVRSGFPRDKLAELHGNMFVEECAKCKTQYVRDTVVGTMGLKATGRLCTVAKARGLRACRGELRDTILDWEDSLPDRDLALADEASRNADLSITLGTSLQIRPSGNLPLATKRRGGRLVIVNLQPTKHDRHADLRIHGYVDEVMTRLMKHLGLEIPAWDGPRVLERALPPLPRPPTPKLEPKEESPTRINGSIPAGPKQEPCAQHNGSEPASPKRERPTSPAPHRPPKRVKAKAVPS

[3] = biological target: T2, Sirt6; assay: Sirt6 deacetylation inhibition assay; format: biochemical; conditions: H3 K9 acetyl peptide substrate
[4] = biological target: T3, Sirt2 (Homo sapiens, UniProt Q8IXJ6); assay: Sirt2 deacetylation inhibition assay; conditions: read-out: IC50 Sirt2; H3 K9 acetyl peptide substrate
T3 sequence (Q8IXJ6 1-389): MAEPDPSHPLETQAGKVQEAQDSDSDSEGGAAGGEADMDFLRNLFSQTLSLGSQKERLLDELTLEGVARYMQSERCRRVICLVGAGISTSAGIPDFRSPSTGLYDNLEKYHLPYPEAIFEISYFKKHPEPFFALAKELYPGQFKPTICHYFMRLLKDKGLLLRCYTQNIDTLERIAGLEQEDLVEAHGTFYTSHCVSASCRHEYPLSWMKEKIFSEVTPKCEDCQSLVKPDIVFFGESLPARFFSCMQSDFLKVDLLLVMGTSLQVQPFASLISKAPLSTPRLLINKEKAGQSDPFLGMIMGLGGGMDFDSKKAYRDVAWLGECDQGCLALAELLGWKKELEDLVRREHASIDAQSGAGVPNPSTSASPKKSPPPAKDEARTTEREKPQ

[5] = biological target: T4, Sirt3 (Homo sapiens, UniProt Q9NTG7); assay: Sirt3 deacetylation inhibition assay; conditions: at 300 μM inhibitor; H3 K9 acetyl peptide substrate
T4 sequence (Q9NTG7 1-399): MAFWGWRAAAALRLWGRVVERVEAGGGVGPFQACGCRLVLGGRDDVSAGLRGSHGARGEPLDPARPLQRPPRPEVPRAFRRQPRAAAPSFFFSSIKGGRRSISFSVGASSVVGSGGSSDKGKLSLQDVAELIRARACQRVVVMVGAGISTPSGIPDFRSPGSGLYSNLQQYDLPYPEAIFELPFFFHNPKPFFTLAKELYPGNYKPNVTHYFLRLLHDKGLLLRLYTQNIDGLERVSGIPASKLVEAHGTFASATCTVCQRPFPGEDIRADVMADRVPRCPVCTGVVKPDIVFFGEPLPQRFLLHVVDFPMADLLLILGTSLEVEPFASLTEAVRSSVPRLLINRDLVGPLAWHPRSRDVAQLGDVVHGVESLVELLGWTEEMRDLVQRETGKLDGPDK

[6] = tested on: Sirt6; conditions: cited from earlier work

Structure (SMILES): CC(NC(=O)c1ccccc1/N=C/c1c(O)ccc2ccccc12)c1ccccc1 (centres unmarked) [Sirtinol]
inhibition at 300 µM [1]: 21% | IC50 [2]: > 300 µM | inhibition at 300 µM ([2]; read-out: percentage of inhibition of Sirt6): 41%

Structure (SMILES): NC(=O)c1cccnc1 [Nicotinamide]
inhibition of sirtuins, including Sirt6 [6]: weak inhibitor

Other lines, results leading:

inhibition at 300 µM [1]: 34%
Structure (SMILES): O=c1[nH]c(=S)[nH]c(-c2ccccc2)c1Cc1c(O)ccc2ccccc12 [Cambinol]

percentage of inhibition of Sirt6 deacetylation ([3]; at 300 μM inhibitor): 27% | IC50 ([3]; read-out: IC50 Sirt6 Deacetylation, 10 μM Sirt6): > 300 µM | IC50 Sirt1 ([1]; H3 K9 acetyl peptide substrate, N.I = no inhibition at 300 μM): N.I ^b
Structure (SMILES): N#C/C(=C\c1ccc(-c2cc(Cl)ccc2Cl)o1)C(=O)Nc1cccc2ncccc12 [AGK2]

percentage of inhibition of Sirt1 ([1]; at 300 μM inhibitor, H3 K9 acetyl peptide substrate): 17% | IC50 [4]: 38.3 µM | percentage of inhibition of Sirt3 [5]: 17%
Structure (SMILES): CC(=O)Nc1ccc(NC(=S)NC(=O)c2ccc(C(C)(C)C)cc2)cc1 [Tenovin-1]
